This is an account of results in patent publication US4487718A, “Peptides” (Kowa Company, Ltd., priority 1983, dated 1984).

Experiment [1] concerns the target T1, activated blood coagulation factor XIII (Homo sapiens, UniProt P00488).
T1 sequence (P00488 39-732 limits assumed): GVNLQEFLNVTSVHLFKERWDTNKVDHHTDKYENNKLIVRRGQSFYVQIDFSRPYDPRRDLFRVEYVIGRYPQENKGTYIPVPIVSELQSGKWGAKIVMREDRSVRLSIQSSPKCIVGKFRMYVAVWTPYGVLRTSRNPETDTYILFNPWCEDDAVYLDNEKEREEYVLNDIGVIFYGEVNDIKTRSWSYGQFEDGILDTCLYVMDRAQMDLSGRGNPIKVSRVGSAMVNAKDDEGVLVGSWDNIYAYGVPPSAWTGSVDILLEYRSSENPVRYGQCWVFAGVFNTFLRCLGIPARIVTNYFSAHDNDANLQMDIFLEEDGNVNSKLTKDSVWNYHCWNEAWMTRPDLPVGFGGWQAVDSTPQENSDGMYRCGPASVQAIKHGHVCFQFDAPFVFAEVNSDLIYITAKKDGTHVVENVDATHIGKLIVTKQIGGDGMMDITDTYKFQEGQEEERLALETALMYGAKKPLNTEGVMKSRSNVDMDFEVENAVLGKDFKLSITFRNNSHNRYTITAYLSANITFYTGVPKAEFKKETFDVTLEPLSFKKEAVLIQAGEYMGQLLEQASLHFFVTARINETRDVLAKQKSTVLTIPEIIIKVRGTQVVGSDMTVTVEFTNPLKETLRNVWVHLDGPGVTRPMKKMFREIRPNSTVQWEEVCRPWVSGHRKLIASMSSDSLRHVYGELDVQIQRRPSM
Put plainly: Crosslinking capacity of the peptide (Ia) to fibrin (125I-labeled peptide, fibrin clot radioactivity). In kind it is biochemical. The procedure:
To a mixed solution of 20 μl of the peptide (Ia) labeled with a radioactive isotope ^125 I, 20 μl of fibrinogen (30 mg/ml, 88 μM, containing 2 or 10 μ/ml of the blood coagulation factor XIII) and 140 μl of a Tris buffer, was added 20 μl of a mixed solution of thrombin (3.3 u/ml) and calcium chloride (50 mM). The resulting mixture was then incubated at 37° C.
The clotting sample was frozen instantaneously at each time with dry ice/acetone to terminate the reaction and then lyophilized. The resulting fibrin film was washed three times, each for 5 minutes, with 200 μl of 50 mM EDTA containing 1% of BSA (brovine serum albmin). The thus washed fibrin film was measured in its radioactivity to determine the amount of the peptide coupled with the fibrin [see "Biochim, Biophys, Acta", 661, 280-286, (1981)].

Experiment [2] addresses T2, crosslinking of α2 -PI to fibrin (Homo sapiens, UniProt P00488).
T2 sequence (P00488 39-732 limits assumed): T1 sequence (P00488 39-732 limits assumed)
In words: Inhibitory effect against the crosslinking of α2 -PI to fibrin. In kind it is biochemical. The conditions noted are these: peptide 0-50 mM solution, α2 -PI 10 μM solution; FIG. 2. The procedure: Twenty microliters of a mixed solution of thrombin (3.3 u/ml) and calcium chloride (50 mM) was added to a mixed solution consisting of 20 μl of fibrinogen (30 mg/ml, 88 μM, containing 10 u/ml of the blood coagulation factor XIII), 20 μl of α2 -PI (0.67 mg/ml, 10 μM), 20 μl of a ^125 I-labeled peptide (0-50 mM) and 120 μl of a Tris buffer. The amount of the peptide bonded to the resulting fibrin clot was then determined in the same manner as in Experiment 1.
On the other hand, the amount of α2 -PI coupled with a fibrin clot was also determined using ^125 I-labeled α2 -PI and an unlabeled peptide.

Experiment [3] relates to fibrin clot. In words: Fibrinolysis-accelerating effect: release of 125I from fibrin clots of platelet-rich plasma. Further details: species or system human. The conditions noted are these: peptide 0-500 μM, FIG. 3. The procedure: Healthy human blood to which sodium citrate had been added, was subjected to centrifugal separation to prepare platelet-rich plasma. A trace amount of ^125 I-labeled fibrinogen was added to and mixed with the platelet-rich plasma. 250 mM solutions of calcium chloride which contained the peptide (Ia) at different levels (0-5 mM) were poured, each in a volume of 20 μl, into glass test tubes. Each test tube was added with 180 μl of the above plasma and then allowed to stand at 37° C. A fibrin clot was formed in several minutes. Clot retraction started about 15 minutes later and was completed in about 30 minutes.
Thereafter, 800 μl of platelet-poor plasma which contained the peptide (Ia) at different levels (0-500 μM) and 1 u of Hirudin was added to each of the test tubes. The test tube was then incubated at 37° C. The contents were sampled periodically to measure ^125 I released into the supernatant.

The subject of experiment [4] is fibrin clot. In words: Synergistic effects in combination with tissue plasminogen activator (TPA), added before or after clot formation. The conditions noted are these: with melanoma-derived TPA, compared with no activator, FIGS. 4 and 5. Set-up: species or system human. The procedure:
Healthy human blood to which sodium citrate had been added, was subjected to centrifugal separation to prepare platelet-rich plasma. A trace amount of ^125 I-labeled fibrinogen was added to and mixed with the platelet-rich plasma. 250 mM solutions of calcium chloride which contained the peptide (Ia) at different levels (0-5 mM) and 1 u/ml of a melanoma-derived tissue plasminogen activator (TPA), were poured 20 μl by 20 μl into glass test tubes, each of which was then added with 180 μl of the above plasma. A fibrin clot was formed in several minutes. Clot retraction started about 15 minutes later and was completed in about 30 minutes.
Thereafter, each test tube was added with 800 μl of platelet-poor plasma which contained the peptide (Ia) at different levels (0-500 μM) and 1 u of Hirudin. The test tube was then incubated at 37° C. The contents were sampled periodically to measure ^125 I released into the supernatant.
Healthy human blood to which sodium citrate had been added, was subjected to centrifugal separation to prepare platelet-rich plasma. A trace amount of ^125 I-labeled fibrinogen was added to and mixed with the platelet-rich plasma. 250 mM solutions of calcium chloride were poured 20 μl by 20 μl into glass test tubes, each of which was then added with 180 μl of the above plasma. A fibrin clot was formed in several minutes. […]

In the case of “L-Asn-L-Gln-L-Glu-L-Gln-L-Val-L-Ser-L-Pro-L-Leu-L-Thr-L-Gly-L-Leu-L-Lys-NH [peptide (Ia)]”, the “amount of the peptide coupled with the fibrin at equilibrium” value in experiment [1] (125I-labeled peptide, fibrinogen containing factor XIII, thrombin, calcium chloride, 37° C., FIG. 1) is “about 40%”. Also, the “crosslinking velocity to fibrin” value in experiment [1] (compared with α2 -PI, FIG. 1) is “substantially the same as that of α2 -PI”. Moreover, the “glutamine substrate for the activated blood coagulation factor XIII” value in experiment [1] (conclusion from Experiment 1) is recorded as “good glutamine substrate”. Moreover, in experiment [2], the “inhibition of the crosslinking of α2 -PI to the fibrin” value is “inhibits competitively”. The “fibrinolysis-accelerating effect (dissolution of fibrin clot)” value in the experiment on fibrin clot [3] (human platelet-rich plasma clot, 37° C., compared with absence of peptide) is reported as “has a fibrinolysis-accelerating effect”. Further, in the experiment on fibrin clot [3], the “dependence of the fibrinolysis-accelerating effect on the amount added” value was “proportional to the amounts of the peptide (Ia) added”. Besides, the “fibrinolysis-accelerating effect in combination with a plasminogen activator” value with fibrin clot [4] was “synergistically enhanced fibrinolysis-accelerating effect”.
